Where a name gives a salt, the structure may show the parent alone.
How the values were obtained:
advanced ovarian cancer = conditions: one of 3 subjects with advanced ovarian cancer; cited from earlier work
[1] = system: Akt activation in MCF7 breast cancer cells; conditions: cited from earlier work
[2] = system: HRG stimulation of p180 tyrosine phosphorylation in MCF7 cells; test: Inhibition of HRG-stimulated p180 tyrosine phosphorylation in MCF7 cells (antiphosphotyrosine immunoblot, reflectance densitometry); type: cell-based, human; conditions: MCF7, 0.2 nM rHRGβ1
Procedure: MCF7 cells were seeded in 24-well plates (1×10^5 cells/well) and grown to about 85% confluency for two days.
MCF7 cells were plated in 24-well plates and monoclonal antibodies to HER2 were added to each well and incubated for 30 minutes at room temperature; then rHRGβ1177-244 was added to each well to a final concentration of 0.2 nM, and the incubation was continued for 8 minutes. Media was carefully aspirated from each well, and reactions were stopped by the addition of 100 μl of SDS sample buffer (5% SDS, 25 mM DTT, and 25 mM Tris-HCl, pH 6.8). Each sample (25 μl) was electrophoresed on a 4-12% gradient gel (Novex) and then electrophoretically transferred to polyvinylidene difluoride membrane. Antiphosphotyrosine (4G10, from UBI, used at 1 μg/ml) immunoblots were developed, and the intensity of the predominant reactive band at Mr ˜180,000 was quantified by reflectance densitometry, as described previously (Holmes et al. Science 256:1205-1210 (1992); Sliwkowski et al. J. Biol. Chem. 269:14661-14665 (1994)).

[3] = system: mitogen-activated protein kinase (MAPK) activation in MCF7 cells; test: EGF, TGF-α or HRG mediated activation of MAPK in MCF7 cells (Western blot); type: cell-based, human; conditions: 200 nM antibody, 1 nM EGF, 1 nM TGF-α or 0.2 nM HRG
Procedure: Many growth factor receptors signal through the mitogen-activated protein kinase (MAPK) pathway. These dual specificity kinases are one of the key endpoints in signal transduction pathways that ultimately triggers cancer cells to divide. […] MCF7 cells (10^5 cells/well) were plated in serum containing media in 12-well cell culture plates. The next day, the cell media was removed and fresh media containing 0.1% serum was added to each well. This procedure was then repeated the following day and prior to assay the media was replaced with serum-free binding buffer (Jones et al. J. Biol. Chem. 273:11667-74 (1998); and Schaefer et al. J. Biol. Chem. 274:859-66 (1999)). […] Cells were then treated with 1 nM EGF, 1 nM TGF-α or 0.2 nM HRG for 15 minutes. The reaction was stopped by aspirating the cell medium and then adding 0.2 mL SDS-PAGE sample buffer containing 1% DTT. MAPK activation was assessed by Western blotting using an anti-active MAPK antibody (Promega) as described previously (Jones et al. J. Biol. Chem. 273:11667-74 (1998)).

SK-BR-3 cells = test: Growth inhibition of SK-BR-3 cells, crystal violet staining, 4 days, with or without rHRGβ1; type: cell-based, human; conditions: FIG. 4B
MDA-MB-175 cells = test: Growth inhibition of MDA-MB-175 cells, crystal violet staining, 4 days; type: cell-based; conditions: 10 μg/mL
Procedure: Experiment was carried out in medium containing 1% serum. HER2 antibodies or medium alone were added and the cells were incubated for 2 hours at 37° C. Subsequently rHRGβ1 (1 nM) or medium alone were added and the cells were incubated for 4 days. Monolayers were washed and stained/fixed with 0.5% crystal violet. To determine cell proliferation the absorbance was measured at 540 nm.
HER2 levels in MDA-MB-175 cells are 4-6 times higher than the level found in normal breast epithelial cells and the HER2-HER4 receptor is constitutively tyrosine phosphorylated in MDA-MB-175 cells. […] Inhibition of cell proliferation by 4D5 is dependent on the HER2 expression level (Lewis et al. Cancer Immunol. Immunother. 37:255-263 (1993)). […] However this effect could be overcome by exogenous HRG.

[4] = cited from earlier work
[5] = system: platinum-resistant ovarian cancer; conditions: patients with platinum-resistant disease; cited from earlier work

Molecule: Pertuzumab: Antibody with light and heavy chain SEQ ID NOS. 16 and 17; humanized version 574 variable domains with human IgG1 constant region
- response (advanced ovarian cancer): durable partial response

Molecule: 2C4: Murine monoclonal antibody binding the extracellular domain of HER2, ATCC HB-12697 [Mutant 2C4]
- basal level of Akt activation ([1]; MCF7, absence of heregulin addition): further reduced
- heregulin-mediated Akt activation ([1]; MCF7, Agus et al. 2002): inhibits
- generation of HRG-induced tyrosine phosphorylation signal at Mr 180,000 [2]: significantly inhibited
- block of EGF, TGF-α and HRG mediated activation of MAPK [3]: significantly blocks
- inhibitory effect on HER2 overexpressing cell line SK-BR-3 (SK-BR-3 cells): no inhibitory effect
- growth inhibitory effect on MDA-MB-175 cells (MDA-MB-175 cells): strong growth inhibitory effect

Molecule: Nc1ccn([C@@H]2O[C@H](CO)[C@@H](O)C2(F)F)c(=O)n1 [Gemcitabine, 2′-deoxy-2′,2′-difluorocytidine monohydrochloride (b-isomer)]
- toxicity when combined with other chemotherapeutic agents ([4]; combined with taxanes, anthracyclines, platinums): without any significant increases or unexpected toxicities
- combined incidence of nausea and vomiting ([4]; single agent): 69%
- incidence of anemia ([4]; single agent): 68%
- incidence of diarrhea ([4]; single agent): 19%
- incidence of neutropenia ([4]; single agent): 63%
- incidence of rash ([4]; single agent): 30%
- nausea and vomiting, grade III incidence ([4]; single agent): 13%
- nausea and vomiting, grade IV incidence ([4]; single agent): 1%
- rash, grade III incidence ([4]; single agent): 1%
- partial response rate [5]: 16%

Molecule: CC[C@@]1(O)C(=O)OCc2c1cc1n(c2=O)Cc2cc3c(CN(C)C)c(O)ccc3nc2-1 [Topotecan]
- partial response rate [5]: 6%

Source: patent publication US20120107391A1, “THERAPY OF PLATINUM-RESISTANT CANCER” (Genentech, Inc., priority 2004, published 2012)
